Measured values as given in ChEMBL document CHEMBL1156733, “Structure-activity relationship studies on a series of piperazinebenzylalcohols and their ketone and amine analogs as melanocortin-4 receptor ligands” (Bioorg Med Chem Lett, 2008).

Each molecule was assayed against Melanocortin receptor 4 (Homo sapiens, UniProt P32245).
Melanocortin receptor 4, sequence (P32245 whole entry): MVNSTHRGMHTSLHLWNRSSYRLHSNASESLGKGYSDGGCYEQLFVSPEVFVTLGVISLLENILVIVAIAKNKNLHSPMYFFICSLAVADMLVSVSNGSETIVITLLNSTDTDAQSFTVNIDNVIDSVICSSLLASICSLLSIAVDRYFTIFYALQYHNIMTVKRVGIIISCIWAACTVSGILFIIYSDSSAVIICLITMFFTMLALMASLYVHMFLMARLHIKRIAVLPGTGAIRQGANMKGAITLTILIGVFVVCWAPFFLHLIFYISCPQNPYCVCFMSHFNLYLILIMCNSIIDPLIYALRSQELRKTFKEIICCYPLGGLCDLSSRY
Description: Binding affinity to human MC4 receptor

| Ki [nM] | Structure (SMILES) |
| --- | --- |
| 1700 | CCCCN(CCCC)[C@H](Cc1ccc(Cl)cc1Cl)C(=O)N1CCN(c2ccccc2C(=O)CC(C)C)CC1 |
| 89 | CC(C)CC(O)c1ccccc1N1CCN(C(=O)[C@@H](Cc2ccc(Cl)cc2Cl)NCC2CCOC2)CC1 (some centres undefined) |
| 29 | C=CC(C)C(O)c1ccccc1N1CCN(C(=O)[C@@H](Cc2ccc(Cl)cc2Cl)NC(=O)CCN)CC1 (some centres undefined) |
| 21 | CNC(C)(C)C(=O)N[C@H](Cc1ccc(Cl)cc1Cl)C(=O)N1CCN(c2ccccc2C(O)CC(C)C)CC1 (some centres undefined) |
| 9 | CC(C)C[C@@H](O)c1ccccc1N1CCN(C(=O)[C@@H](Cc2ccc(Cl)cc2Cl)NC(=O)CN)CC1 |
| 26 | CCC(O)(CC)c1ccccc1N1CCN(C(=O)[C@@H](Cc2ccc(Cl)cc2Cl)NC(=O)CN)CC1 |
| 47 | CCC(C)C(O)c1ccccc1N1CCN(C(=O)[C@@H](Cc2ccc(Cl)cc2Cl)NC(=O)CCN)CC1 (some centres undefined) |
| 23 | COc1ccc(CCC(O)c2ccccc2N2CCN(C(=O)[C@@H](Cc3ccc(Cl)cc3Cl)NC(=O)CCN)CC2)cc1 (some centres undefined) |
| 5800 | CCCCCN(CCCCC)[C@H](Cc1ccc(Cl)cc1Cl)C(=O)N1CCN(c2ccccc2C(=O)CC(C)C)CC1 |
| 13 | CC(C)CC(O)c1ccccc1N1CCN(C(=O)[C@@H](Cc2ccc(Cl)cc2Cl)NC(=O)CN)CC1 (some centres undefined) |
| 21 | CSCCCN[C@H](Cc1ccc(Cl)cc1Cl)C(=O)N1CCN(c2ccccc2C(N)CC(C)C)CC1 (some centres undefined) |
| > 10000 | CC(C)CC(=O)c1ccccc1N1CCN(C(=O)[C@@H](Cc2ccc(Cl)cc2Cl)N(CC2CC2)CC2CC2)CC1 |
| 120 | CCCCN(CCCC)[C@H](Cc1ccc(Cl)cc1Cl)C(=O)N1CCN(c2ccccc2C(N)CC(C)C)CC1 (some centres undefined) |
| 11 | CCC(O)(CC)c1ccccc1N1CCN(C(=O)[C@@H](Cc2ccc(Cl)cc2Cl)NC(=O)CCN)CC1 |
| 66 | COc1ccccc1CC(O)c1ccccc1N1CCN(C(=O)[C@@H](Cc2ccc(Cl)cc2Cl)NC(=O)CCN)CC1 (some centres undefined) |
| 380 | CC(C)CC(O)c1ccccc1N1CCN(C(=O)[C@@H](Cc2ccc(Cl)cc2Cl)NC(C)C)CC1 (some centres undefined) |
| 110 | CC(C)CC(=O)c1ccccc1N1CCN(C(=O)[C@@H](Cc2ccc(Cl)cc2Cl)NC(=O)C(C)(C)N)CC1 |
| 280 | CC(C)CC(O)c1ccccc1N1CCN(C(=O)[C@H](N)Cc2ccc(Cl)cc2Cl)CC1 (some centres undefined) |
| 91 | CNC(C)(C)C(=O)N[C@H](Cc1ccc(Cl)cc1Cl)C(=O)N1CCN(c2ccccc2C(=O)CC(C)C)CC1 |
| 390 | CCC(O)(CC)c1ccccc1N1CCN(C(=O)[C@@H](Cc2ccc(Cl)cc2Cl)NC(=O)OC(C)(C)C)CC1 |

| Ki [nM] | Structure (SMILES) |
| --- | --- |
| 32 | NCCC(=O)N[C@H](Cc1ccc(Cl)cc1Cl)C(=O)N1CCN(c2ccccc2C(O)CCc2ccccc2)CC1 (some centres undefined) |
| 150 | CC(C)CC(=O)c1ccccc1N1CCN(C(=O)[C@@H](Cc2ccc(Cl)cc2Cl)NCC2CCOC2)CC1 (some centres undefined) |
| 54 | NCCC(=O)N[C@H](Cc1ccc(Cl)cc1Cl)C(=O)N1CCN(c2ccccc2C(O)Cc2ccccc2)CC1 (some centres undefined) |
| 26 | CC(C)CC(=O)c1ccccc1N1CCN(C(=O)[C@@H](Cc2ccc(Cl)cc2Cl)NC(=O)[C@H](C)N)CC1 |
| 2 | CC(C)CC(N)c1ccccc1N1CCN(C(=O)[C@@H](Cc2ccc(Cl)cc2Cl)N(Cc2ccccn2)Cc2ccccn2)CC1 (some centres undefined) |
| 18 | CCC(O)(CC)c1ccccc1N1CCN(C(=O)[C@@H](Cc2ccc(Cl)cc2Cl)NC(=O)[C@H](C)N)CC1 |
| 350 | CCCCCN(CCCCC)[C@H](Cc1ccc(Cl)cc1Cl)C(=O)N1CCN(c2ccccc2C(N)CC(C)C)CC1 (some centres undefined) |
| > 10000 | CC(C)CC(O)c1ccccc1N1CCN(C(=O)[C@@H](Cc2ccc(Cl)cc2Cl)N(CC2CC2)CC2CC2)CC1 (some centres undefined) |
| 83 | CC(C)CC(O)c1ccccc1N1CCN(C(=O)[C@@H](Cc2ccc(Cl)cc2Cl)N(Cc2ccccn2)Cc2ccccn2)CC1 (some centres undefined) |
| > 10000 | CC(C)CC(=O)c1ccccc1N1CCN(C(=O)[C@@H](Cc2ccc(Cl)cc2Cl)N(CC(C)C)CC(C)C)CC1 |
| 13 | CCC(O)(CC)c1ccccc1N1CCN(C(=O)[C@@H](Cc2ccc(Cl)cc2Cl)NC(=O)CNC)CC1 |
| 110 | CC(C)C(O)c1ccccc1N1CCN(C(=O)[C@@H](Cc2ccc(Cl)cc2Cl)NC(=O)CCN)CC1 (some centres undefined) |
| 49 | CC(C)CC(O)c1ccccc1N1CCN(C(=O)[C@@H](Cc2ccc(Cl)cc2Cl)NC(=O)C2CCCNC2)CC1 (some centres undefined) |
| 1400 | CCCCN(CCCC)[C@H](Cc1ccc(Cl)cc1Cl)C(=O)N1CCN(c2ccccc2C(O)CC(C)C)CC1 (some centres undefined) |
| 1200 | CC(C)CC(N)c1ccccc1N1CCN(C(=O)[C@@H](Cc2ccc(Cl)cc2Cl)N(CC(C)C)CC(C)C)CC1 (some centres undefined) |
| 26 | CCCC(O)c1ccccc1N1CCN(C(=O)[C@@H](Cc2ccc(Cl)cc2Cl)NC(=O)CCN)CC1 (some centres undefined) |
| 7.7 | CC(C)CC(N)c1ccccc1N1CCN(C(=O)[C@@H](Cc2ccc(Cl)cc2Cl)NC(=O)C(C)(C)N)CC1 (some centres undefined) |
| 16 | CC(C)CC(O)c1ccccc1N1CCN(C(=O)[C@@H](Cc2ccc(Cl)cc2Cl)NC(=O)[C@H](C)N)CC1 (some centres undefined) |
| 65 | CCC(O)(CC)c1ccccc1N1CCN(C(=O)[C@@H](Cc2ccc(Cl)cc2Cl)NC(=O)[C@@H](C)N)CC1 |
| 350 | CC(C)CC(N)c1ccccc1N1CCN(C(=O)[C@@H](Cc2ccc(Cl)cc2Cl)N(CC2CC2)CC2CC2)CC1 (some centres undefined) |

| Ki [nM] | Structure (SMILES) |
| --- | --- |
| 33 | CC(C)CC(=O)c1ccccc1N1CCN(C(=O)[C@@H](Cc2ccc(Cl)cc2Cl)NC(=O)CN)CC1 |
| 230 | CSCCCN[C@H](Cc1ccc(Cl)cc1Cl)C(=O)N1CCN(c2ccccc2C(=O)CC(C)C)CC1 |
| 15 | CC(C)CC(N)c1ccccc1N1CCN(C(=O)[C@@H](Cc2ccc(Cl)cc2Cl)NCC2CCOC2)CC1 (some centres undefined) |
| 330 | CSCCCN[C@H](Cc1ccc(Cl)cc1Cl)C(=O)N1CCN(c2ccccc2C(O)CC(C)C)CC1 (some centres undefined) |
| 46 | CC(C)CC(O)c1ccccc1N1CCN(C(=O)[C@@H](Cc2ccc(Cl)cc2Cl)NC(=O)C(C)(C)N)CC1 (some centres undefined) |
| 11 | CCCC(C)(O)c1ccccc1N1CCN(C(=O)[C@@H](Cc2ccc(Cl)cc2Cl)NC(=O)CCN)CC1 (some centres undefined) |
| 42 | CCC(O)(CC)c1ccccc1N1CCN(C(=O)[C@@H](Cc2ccc(Cl)cc2Cl)NC(=O)NC2CC2)CC1 |
| 4.2 | CC(C)CC(N)c1ccccc1N1CCN(C(=O)[C@@H](Cc2ccc(Cl)cc2Cl)NC(=O)[C@H](C)N)CC1 (some centres undefined) |
| 110 | CC(C)CC(=O)c1ccccc1N1CCN(C(=O)[C@@H](Cc2ccc(Cl)cc2Cl)N(Cc2ccccn2)Cc2ccccn2)CC1 |
| 110 | CCC(O)(CC)c1ccccc1N1CCN(C(=O)[C@@H](Cc2ccc(Cl)cc2Cl)NC(=O)N2CCCC2=O)CC1 |
| 4.7 | CNC(C)(C)C(=O)N[C@H](Cc1ccc(Cl)cc1Cl)C(=O)N1CCN(c2ccccc2C(N)CC(C)C)CC1 (some centres undefined) |
| 870 | NCCC(=O)N[C@H](Cc1ccc(Cl)cc1Cl)C(=O)N1CCN(c2ccccc2CO)CC1 |
| 6.3 | CCOC(=O)[C@H]1CCCC[C@@H]1N1CCN(C(=O)[C@@H](Cc2ccc(Cl)cc2Cl)NC(=O)CCN)CC1 |
| > 10000 | CC(C)CC(O)c1ccccc1N1CCN(C(=O)[C@@H](Cc2ccc(Cl)cc2Cl)N(CC(C)C)CC(C)C)CC1 (some centres undefined) |
| 2 | CC(C)CC(N)c1ccccc1N1CCN(C(=O)[C@@H](Cc2ccc(Cl)cc2Cl)NC(=O)CN)CC1 (some centres undefined) |
| 53 | CC(C)CC(N)c1ccccc1N1CCN(C(=O)[C@@H](Cc2ccc(Cl)cc2Cl)NC(C)C)CC1 (some centres undefined) |
| 3200 | CCCCCN(CCCCC)[C@H](Cc1ccc(Cl)cc1Cl)C(=O)N1CCN(c2ccccc2C(O)CC(C)C)CC1 (some centres undefined) |
| 560 | CC(C)CC(=O)c1ccccc1N1CCN(C(=O)[C@@H](Cc2ccc(Cl)cc2Cl)NC(C)C)CC1 |
| 66 | COc1cccc(CC(O)c2ccccc2N2CCN(C(=O)[C@@H](Cc3ccc(Cl)cc3Cl)NC(=O)CCN)CC2)c1 (some centres undefined) |
